Consider 11 molecules from US10758534B2 (Vertex Pharmaceuticals Incorporated, priority 2014, dated 2020).

For the test, the target named is T1, F508del (Homo sapiens, UniProt P13569, DEL508-508).
T1 construct: expressed in transfected cells
The test can be described thus: Protocol 2: FRET membrane potential optical assay (VIPR), identification of correction compounds. In kind it is cell-based. The essentials: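 Single-addition HTS format: F508del-expressing NIH3T3 cells pre-incubated 16 hrs at 37° C. ± compound, with 27° C. culture as positive control. Channel activation by forskolin 10 μM and genistein 20 μM upon switch to gluconate bath, pH 7.4; read-out is FRET-based depolarization signal.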

[1] abbreviates: F508del CFTR modulator activity, compounds of Table 1, read-out: EC30.
[2] abbreviates: Table 3, compounds of Table 1 as modulators of CFTR activity, protocol not stated.

Where two headings read alike, the source gives them in different places.

T1 sequence (P13569 with tags, fused parts or gaps DEL508-508): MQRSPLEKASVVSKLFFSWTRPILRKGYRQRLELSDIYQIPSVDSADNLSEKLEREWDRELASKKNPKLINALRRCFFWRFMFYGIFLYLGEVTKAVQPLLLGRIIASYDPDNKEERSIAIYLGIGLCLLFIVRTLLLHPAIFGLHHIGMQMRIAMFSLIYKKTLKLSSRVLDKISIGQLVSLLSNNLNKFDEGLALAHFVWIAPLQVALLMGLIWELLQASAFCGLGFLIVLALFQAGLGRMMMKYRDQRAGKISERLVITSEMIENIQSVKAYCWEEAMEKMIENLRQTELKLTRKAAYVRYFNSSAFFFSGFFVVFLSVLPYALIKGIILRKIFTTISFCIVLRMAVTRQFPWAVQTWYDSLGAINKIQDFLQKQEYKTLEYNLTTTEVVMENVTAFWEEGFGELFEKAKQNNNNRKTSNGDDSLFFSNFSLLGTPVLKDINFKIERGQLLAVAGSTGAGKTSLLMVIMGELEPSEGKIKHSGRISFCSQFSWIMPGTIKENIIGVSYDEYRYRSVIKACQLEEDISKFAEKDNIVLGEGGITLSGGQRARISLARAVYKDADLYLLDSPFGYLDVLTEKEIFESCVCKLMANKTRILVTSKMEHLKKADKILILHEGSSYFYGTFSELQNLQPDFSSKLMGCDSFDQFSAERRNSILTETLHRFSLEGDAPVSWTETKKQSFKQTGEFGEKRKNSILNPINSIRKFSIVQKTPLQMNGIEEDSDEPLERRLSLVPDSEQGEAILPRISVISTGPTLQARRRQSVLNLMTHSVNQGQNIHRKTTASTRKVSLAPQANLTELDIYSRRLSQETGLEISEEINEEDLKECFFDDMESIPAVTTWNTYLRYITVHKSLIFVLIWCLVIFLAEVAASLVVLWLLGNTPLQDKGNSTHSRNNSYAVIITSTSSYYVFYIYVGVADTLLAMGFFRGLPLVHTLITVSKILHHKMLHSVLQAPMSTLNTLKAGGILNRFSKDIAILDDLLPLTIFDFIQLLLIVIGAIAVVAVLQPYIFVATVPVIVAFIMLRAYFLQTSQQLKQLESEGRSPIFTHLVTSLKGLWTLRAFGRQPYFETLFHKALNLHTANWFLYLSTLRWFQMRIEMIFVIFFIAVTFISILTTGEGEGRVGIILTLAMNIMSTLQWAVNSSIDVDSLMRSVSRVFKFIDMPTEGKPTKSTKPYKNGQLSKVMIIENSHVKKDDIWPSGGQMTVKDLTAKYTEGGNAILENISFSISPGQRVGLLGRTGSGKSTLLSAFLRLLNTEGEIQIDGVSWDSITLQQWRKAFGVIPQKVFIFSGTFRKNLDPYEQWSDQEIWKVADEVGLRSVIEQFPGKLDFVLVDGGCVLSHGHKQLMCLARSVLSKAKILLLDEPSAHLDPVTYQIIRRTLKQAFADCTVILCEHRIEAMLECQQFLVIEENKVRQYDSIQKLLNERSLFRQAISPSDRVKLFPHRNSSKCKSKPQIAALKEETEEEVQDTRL

Turning to `CC(C)COc1cc(F)cc(-c2ccc(C(=O)NS(=O)(=O)c3cccc(N)n3)c(N3CCC(O)CC3)n2)c1` [Compound 2323, N-[(6-amino-2-pyridyl)sulfonyl]-6-(3-fluoro-5-isobutoxy-phenyl)-2-(4-hydroxy-1-piperidyl)pyridine-3-carboxamide], the EC30 under setting [1] was 3 to 10 µM.

For the molecule `CC(C)Oc1ccc(-c2ccc(C(=O)NS(=O)(=O)c3cccc(N)n3)c(N3CC[C@H](C)C3(C)C)n2)cn1` [Compound 557, N-[(6-amino-2-pyridyl)sulfonyl]-6-(6-isopropoxy-3-pyridyl)-2-[(3S)-2,2,3-trimethylpyrrolidin-1-yl]pyridine-3-carboxamide], the EC30 entry under setting [2] was “+++ (“+++” means <3 uM)”. The same measure, in the same setting: the result for `CC(C)COc1cc(F)cc(-c2ccc(C(=O)NS(=O)(=O)c3ccn[nH]3)c(N3CCC(CC#N)CC3)n2)c1` [Compound 556, 2-[4-(cyanomethyl)-1-piperidyl]-6-(3-fluoro-5-isobutoxy-phenyl)-N-(1H-pyrazol-5-ylsulfonyl)pyridine-3-carboxamide] reads “+ (“+” means greater than 10 uM)”; that for `CC(C)COc1cc(F)cc(-c2ccc(C(=O)NS(=O)(=O)c3cccc(N)n3)c(N3C4CCC3CC4)n2)c1` [Compound 420, N-[(6-amino-2-pyridyl)sulfonyl]-2-(7-azabicyclo[2.2.1]heptan-7-yl)-6-(3-fluoro-5-isobutoxy-phenyl)pyridine-3-carboxamide], “+++ (“+++” means <3 uM)”. Regarding `C[C@@H]1CN(c2ncccc2C(=O)NS(=O)(=O)N2CCN(CCCc3ccc(Cl)cc3)CC2)C(C)(C)C1` [Compound 2141, N-[4-[3-(4-chlorophenyl)propyl]piperazin-1-yl]sulfonyl-2-[(4S)-2,2,4-trimethylpyrrolidin-1-yl]pyridine-3-carboxamide], the EC30 under setting [1] was under 3 µM.

With `Cc1cc(C)c(Oc2nc(-c3ccc(N(C)C)nc3)ccc2C(=O)NS(=O)(=O)c2cccc(N)n2)c(C)c1` [Compound 787, N-[(6-amino-2-pyridyl)sulfonyl]-6-[6-(dimethylamino)-3-pyridyl]-2-(2,4,6-trimethylphenoxy)pyridine-3-carboxamide], the EC30 entry under setting [2] was “+++ (“+++” means <3 uM)”. For `CCC1(C)CC(C)CN1c1nc(-c2cc(F)cc(OCC(C)C)c2)ccc1C(=O)NS(=O)(=O)c1cccc(N)n1` (single isomer, unassigned) [Compound 2213, N-[(6-amino-2-pyridyl)sulfonyl]-2-(2-ethyl-2,4-dimethyl-pyrrolidin-1-yl)-6-(3-fluoro-5-isobutoxy-phenyl)pyridine-3-carboxamide], the EC30 under setting [1] is under 3 µM. `CC(C)COc1cc(F)cc(-c2ccc(C(=O)NS(=O)(=O)c3cccc(N)n3)c(N3CCC(C)CC3(C)C)n2)c1` (centres unmarked) [Compound 2581, N-[(6-amino-2-pyridyl)sulfonyl]-6-(3-fluoro-5-isobutoxy-phenyl)-2-(2,2,4-trimethyl-1-piperidyl)pyridine-3-carboxamide]: under setting [1], the EC30 is under 3 µM.

`CC1CN(c2ncccc2C(=O)NS(=O)(=O)c2cccc(NCC3CCCC3)n2)C(C)(C)C1` (centres unmarked) [Compound 2026, N—[[6-(cyclopentylmethylamino)-2-pyridyl]sulfonyl]-2-(2,2,4-trimethylpyrrolidin-1-yl)pyridine-3-carboxamide]: the EC30 under setting [1] is under 3 µM. Turning to `Cc1cccc(C)c1Cn1nc(-c2ccc(N3CCCCC3)nc2)cc1C(=O)NS(=O)(=O)c1ccccc1` [Compound 329, N-(benzenesulfonyl)-2-[(2,6-dimethylphenyl)methyl]-5-[6-(1-piperidyl)-3-pyridyl]pyrazole-3-carboxamide], the EC30 entry under setting [2] is “+++ (“+++” means <3 uM)”. For the molecule `C[C@@H]1CN(c2nc(-c3cccc(C(F)(F)F)c3)ccc2C(=O)NS(=O)(=O)c2cccnc2N)C(C)(C)C1` [Compound 2593, N-[(2-amino-3-pyridyl)sulfonyl]-6-[3-(trifluoromethyl)phenyl]-2-[(4S)-2,2,4-trimethylpyrrolidin-1-yl]pyridine-3-carboxamide], the 30% effect concentration (EC30) under setting [1] is under 3 µM.

Broadly, the EC30 is the point of the concentration-response curve where the effect stands at 30%.
